Biological target: Neutrophil collagenase (Homo sapiens, UniProt P22894)
Experiment: Inhibition of Matrix metalloprotease-8 (Human neutrophil collagenase, MMP-8)

Neutrophil collagenase, sequence (P22894 whole entry): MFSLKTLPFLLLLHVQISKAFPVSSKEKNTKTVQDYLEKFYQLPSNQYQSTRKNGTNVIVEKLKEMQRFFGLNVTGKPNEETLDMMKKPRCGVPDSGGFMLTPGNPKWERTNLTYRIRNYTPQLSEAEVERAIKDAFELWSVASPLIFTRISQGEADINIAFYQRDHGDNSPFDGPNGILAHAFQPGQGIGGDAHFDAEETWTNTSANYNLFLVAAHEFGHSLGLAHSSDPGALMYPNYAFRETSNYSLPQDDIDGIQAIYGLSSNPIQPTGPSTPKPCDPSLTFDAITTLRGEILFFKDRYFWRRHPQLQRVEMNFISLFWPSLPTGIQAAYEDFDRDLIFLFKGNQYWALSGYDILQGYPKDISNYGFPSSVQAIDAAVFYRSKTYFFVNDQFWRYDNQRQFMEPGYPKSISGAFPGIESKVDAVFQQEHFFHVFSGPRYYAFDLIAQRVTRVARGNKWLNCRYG

SMILES | Ki [µM]
O=C(NO)C(Cc1ccccc1)C(=O)NCc1ccccc1 (stereo not given) | 3.1
CC(C)CC(C(=O)NO)C(=O)N1CCCC1C(=O)NCc1ccccc1 (stereo not given) | 168
CC(C)CC(C(=O)NO)C(=O)NC(CO)C(=O)NCc1ccccc1 (stereo not given) | 35
CC(C)CC(C(=O)NO)C(=O)NC(CC(N)=O)C(=O)NCc1ccccc1 (stereo not given) | 55
CC(C)CC(C(=O)NO)C(=O)N[C@H](C)C(=O)NCc1ccccc1 (stereo not given in full) | 194
CC(C)C[C@H](C(=O)NO)C(=O)N[C@@H](C)C(=O)NCC(N)=O | 121
CC(C)CC(C(=O)NO)C(=O)NC(CC(=O)O)C(=O)NCc1ccccc1 (stereo in doubt; 12) | 136
CC(C)CC(C(=O)NO)C(=O)N[C@@H](CCc1ccccc1)C(=O)NCCc1ccc(C(=O)O)cc1 (stereo not given in full) | 20
CC(C)CC(C(=O)NO)C(=O)Nc1ccccc1C(=O)NCc1ccccc1 (stereo not given) | 36
CC(C)CC(C(=O)NO)C(=O)NC(CC(=O)O)C(=O)NCc1ccccc1 (stereo in doubt; 12b) | 88
CC(C)CC(C(=O)NO)C(=O)NC(C)C(=O)NCc1ccccc1 (stereo not given) | 50
CCCCCCCCNC(=O)C(CC(C)C)C(=O)NO (stereo not given) | 0.24
CCOC(=O)C(C(=O)NO)c1ccccc1 (stereo not given) | 98
O=C(NO)C(CCc1ccccc1)C(=O)NCc1ccccc1 (stereo not given) | 2.3
Cc1ccc(CCNC(=O)[C@H](CCc2ccccc2)NC(=O)C(CC(C)C)C(=O)NO)cc1 (stereo not given in full) | 1.4
CCOC(=O)C(Cc1ccccc1)C(=O)NO (stereo not given) | 53
O=C(NO)C(CCc1ccccc1)C(=O)NCCCc1ccccc1 (stereo not given) | 0.49
Cc1ccc(CCNC(=O)[C@H](CCc2ccccc2)NC(=O)C(Cc2ccccc2)C(=O)NO)cc1 (stereo not given in full) | 1.7
Cc1ccc(CCNC(=O)[C@H](CCc2ccccc2)NC(=O)C(CCc2ccccc2)C(=O)NO)cc1 (stereo not given in full) | 4
CCOC(=O)C(CCc1ccccc1)C(=O)NO (stereo not given) | 189
O=C(NO)C(O)C(=O)NCCCc1ccccc1 (stereo not given) | 2.3
CC(C)CC(C(=O)NO)C(=O)NC(CC(N)=O)C(=O)NCc1cccc(N)c1 (stereo not given) | 26
CC(C)CC(C(=O)NO)C(=O)N[C@@H](CCc1ccccc1)C(=O)NCCc1ccc(O)cc1 (stereo not given in full) | 12
COC(=O)c1ccc(CCNC(=O)[C@H](CCc2ccccc2)NC(=O)C(CC(C)C)C(=O)NO)cc1 (stereo not given in full) | 9.6
CC(C)CC(C(=O)NO)C(=O)NCCCc1ccccc1 (stereo not given) | 0.54
CCOC(=O)C(CC(C)C)C(=O)NO (stereo not given) | 190
O=C(NO)C(Cc1ccccc1)C(=O)N1CCOCC1 (stereo not given) | 50
CC(C)CC(C(=O)NO)C(=O)NC(Cc1ccccc1)C(=O)NCc1ccccc1 (stereo not given) | 25
Cc1ccc(CCNC(=O)[C@H](CCc2ccccc2)NC(=O)C(O)C(=O)NO)cc1 (stereo not given in full) | 1.6
O=C(NO)C(Cc1ccccc1)C(=O)NCCCc1ccccc1 (stereo not given) | 0.56

From ChEMBL document CHEMBL1131458, “Design and synthesis of malonic acid-based inhibitors of human neutrophil collagenase (MMP8)” (J Med Chem, 1998)
